Laboratory results: patent US12364696B2, “Treatment of autoimmune disease” (priority 2019, dated 2025)
Like-named read-outs stand apart in the source and are kept apart here.

Assays:
[1] = tested on: patients with moderate to severe, treatment-resistant alopecia areata; conditions: for Mean change from baseline in Assessment of Quality of Life-8D (AQoL-8D) score at Week 28: n = 13; for Mean change from baseline in Alopecia Areata Symptom Impact Scale (AASIS) score at Week 28 - Global Symptom Impact Score / Mean change from baseline in Alopecia Areata Symptom Impact Scale (AASIS) score at Week 28 - Scalp Hair Loss Score: n = 14
[2] = tested on: patients with alopecia areata; conditions: oral tofacitinib 5 mg twice daily for 3 months; cited from earlier work
[3] = sublingual, 5 mg tablets, 3 months
[4] = sublingual, 5 mg tablets, 3 months, n = 16
[5] = sublingual, listed as sublingual tofacitinib

In the case of `C[C@@H]1CCN(C(=O)CC#N)C[C@@H]1N(C)c1ncnc2[nH]ccc12` [tofacitinib], the “Changes in blood biochemistry” value ([1]; human, in vivo) was “no clinically significant changes”, the Serious adverse events ([1]; human, in vivo) was “no serious adverse events” and the “Withdrawals secondary to adverse events” value ([1]; human, in vivo) was “no withdrawals secondary to adverse events”. The “Good grade respondents (50-75%), proportion” value [1, 3] was 1/16, the “High grade respondents (75-100%), proportion” value [1, 3] was 1/16 and the “Low grade respondents (15-29% reduction in SALT score at Week 28), proportion” value [1, 3] was 3/16. For the same compound, the “Mean reduction in SALT score of the two patients who achieved >50% reduction” value [1, 3] was 60.3%, the “Medium grade respondents (30-49%), proportion” value [1, 3] was 1/16 and the “Participants achieving at least 1 grade improvement in eyebrow assessment scale at Week 28, proportion” value [1, 3] was 8/16. For the same compound, the “Participants achieving at least 1 grade improvement in eyelash assessment scale at Week 28, proportion” value [1, 3] was 6/16, the “Participants who achieved a 100% reduction in SALT score at Week 28” value [1, 3] was “No participants” and the “Patients who achieved a >50% reduction in SALT score” value [1, 3] was 12.5%. For the same compound, the “Mean reduction from baseline (Week 16) of SALT score at Week 28” value [1, 4] was 15.57%, the “Participants achieving at least 1 grade improvement in eyebrow assessment scale at Week 28, percentage” value [1, 4] was 50% and the “Participants achieving at least 1 grade improvement in eyelash assessment scale at Week 28, percentage” value [1, 4] was 37.5%. For the same compound, the “Participants achieving at least 1 grade improvement in eyebrow assessment scale at Week 28, percentage” value ([1]; sublingual, 5 mg tablets, 3 months, n = 16, listed as sublingual tofacitinib) was “(50%)”, the “Total Treatment Response, proportion” value ([1]; sublingual, 5 mg tablets, Week 28 vs Week 16) was 6/16 and the “Total Treatment Response, percentage” value ([1]; sublingual, 5 mg tablets, Week 28 vs Week 16, n = 16, listed as Sublingual tofacitinib) was 37.5%. The “Mean change from baseline in Assessment of Quality of Life-8D (AQoL-8D) score at Week 28” value ([1]; sublingual) was 0.0148, the “Mean change from baseline in Assessment of Quality of Life-8D (AQoL-8D) score at Week 28” value [1, 5] was −0.0148 and the “Mean change from baseline in Alopecia Areata Symptom Impact Scale (AASIS) score at Week 28 - Global Symptom Impact Score” value ([1]; sublingual) was 0.1306. For the same compound, the “Mean change from baseline in Alopecia Areata Symptom Impact Scale (AASIS) score at Week 28 - Scalp Hair Loss Score” value ([1]; sublingual) was 2.2142, the “Mean change from baseline in Alopecia Areata Symptom Impact Scale (AASIS) score at Week 28 - Global Symptom Impact Score” value [1, 5] was −0.1306 and the “Mean change from baseline in Alopecia Areata Symptom Impact Scale (AASIS) score at Week 28 - Scalp Hair Loss Score” value [1, 5] was −2.2142. For the same compound, the “Patients achieving a 50% or greater reduction in SALT score” value [2] was 32%.
